Where a name gives a salt, the structure may show the parent alone.
Assay: Stability of the deprotected bisthiol measured by HPLC with UV and mass detection
Assay type: physicochemical
Settings: room temperature
Experimental: Stability of compound O-5648 (see Example 1, above) was measured by HPLC with UV and mass detection. The bisthiol free base was stable up to 100 hours at room temperature in methanol exposed to air.
The bisthiol dihydrochloride salt was stable in MeOH up to 150 hours at room temperature.
The solid bisthiol dihydrochloride salt exposed to air was stable for >170 hours at room temperature.

CCC(=O)C1C2CC[C@H](C[C@H]1c1ccc(F)cc1)N2CCCN(CCS)CC(=O)NCCS (stereo partly drawn) [O-5648, N-[2-(3′-N′-Propyl-(1″R)-3″α-(4-fluorophenyl)tropane-2″β-(1-propanoyl)-[(2-mercapto-ethyl)-amino]-(2-mercapto-ethyl-acetamide, dihydrochloride salt]
time stable (bisthiol dihydrochloride salt in MeOH) (bisthiol dihydrochloride salt, in MeOH): up to 150 hours | time stable (bisthiol free base in methanol) (bisthiol free base, in methanol exposed to air): up to 100 hours | time stable (solid bisthiol dihydrochloride salt) (solid bisthiol dihydrochloride salt exposed to air): > 170 h
